Data reported in patent US4386103A, “Dichloroamino acid derivatives useful as potent germicidal and fungicidal agents” (Merck & Co., Inc., priority 1981, dated 1983).

Legend:
Assay type in all cases: cell-based
Bacillus subtilis = experiment: Contact germicidal screen, Bacillus subtilis ATCC No. 60511
Description: (§1) The organisms used in the contact germicidal screen are all maintained as stock cultures on nutrient agar […] 4° C. They are transferred and biochemically diagnosed monthly. The five organisms used are: The media used are: […] Overnight cultures of the test organisms are grown in tryptose phosphate broth. After 15-16 hours, the cultures are centrifuged at […] for 15 minutes, and the supernatant replaced with fresh warm (37° C.) media. After two hours of incubation, the absorbance of the culture at 650 nm is determined and diluted with nutrient broth to 1×10^7 colony forming units per ml (using a previous determined standard curve: colony forming units/ml vs. absorbance at 650). The diluted cultures are maintained at 4°-8° C. throughout the screen. The compounds are weighed into sterile 100 ml volumetric flasks, and immediately before screening dissolved in one of the following buffers: 0.1 M NaOAc pH 4.6 or 0.1 M NaH2 PO4 pH 7.0. If solubility poses a problem, 10-30% methanol is used to effect solution. Two denaturing agents are also tested: […] Horse Serum restored with 100 ml distilled water and 10% Trition×100. When used, 2.5 ml of the denaturing agent is mixed with 2.5 ml of double strength test solution thirty minutes before the bacterial suspension is added. The screen is initiated when 0.2 ml of the bacterial suspension is added to 5.0 ml of the test solution contained in a sterile 25 ml glass stoppered flask. At intervals of 0.5, 2.5, 5.0, 10.0 and 15.0 minutes, a loopful of the inoculated test solution is subcultured into 5 ml of sterile nutrient broth and mixed with a vortex, the high dilution serving to stop the action of the compound. All of the subculture tubes are incubated at 37° C. and checked for signs of growth by turbidity at 1, 3, 5 and 7 days. The earliest subculture time at which no growth is present is considered the endpoint and is recorded as the sterilization time. An aliquot of 0.2 ml of the diluted culture is transferred to 5 ml of buffer to simulate 0.2 ml in 5 ml of test solution. (a) Purity: A loopful of the inoculated buffer is streaked onto nutrient agar to check colony morphology and lack of contaminants. (b) Viability: A loopful of the inoculated buffer is subcultured to 5 ml of nutrient broth as in the screen and incubated at 37° C. for 24 hours. (c) Dilution of the Test Solution: A loopful of the test solution is transferred to a 5 ml tube of nutrient broth, and a loopful of the inoculated buffer is transferred to the same tube of broth. […] (d) Purity of Organisms in the Test Solution: After the 15 minute subculture, a loopful of the inoculated test solution is streaked onto nutrient agar to insure that contamination has not occurred during the screen. (e) lack of Bactericidal Activity of Buffers and Other Solvents: Before a buffer or other solvent is used as a diluent, it is screened against the five organisms to insure that the buffer or solvent has no antibacterial activity itself.

Salmonella typhimurium = experiment: Contact germicidal screen, Salmonella typhimurium ATCC No. 13311
Description: as §1

Aspergillus fumigatus = experiment: Contact fungicidal screen, Aspergillus fumigatus; settings: 0.1M NaOAc pH 4.6
Description: The organisms used in the Contact Fungicidal Screen are a dermatophyte, trychophyton mentagrophytes, frequently associated with athlete's foot; a yeast, Candida albican, causative agent of thrush and vaginitis; a phycomycete, Rhizopus oryzae, commonly known as black bread mold; an ascomycete, Aspergillus fumagatis, found in chicken droppings and causing lung infections; and another dermatophyte, Microsporum canis, which causes ringworm. These organisms are maintained as stock cultures at 4° C. on agar […] of the following composition: dextrose 2%, Neopeptone (Difco) 1%, agar 2%. Fluid medium of the same nutrient composition (without agar) was used to test the viability of the organisms after exposure to the fungicide. This medium is also known as Sabouraud's medium. Sabouraud's agar plate cultures of Aspergillus fumigatus, Microsporum canis, and a different culture of Trychophyton mentagrophytes are prepared by planting an inoculum at the center of an agar plate and incubating at 25°-30° C. for seven to ten days. The mycelial mats are removed from the surface of the agar and prepared in the same manner as the Rhizopus culture. The compounds are weighed into heat sterilized 100 ml volumetric flasks and immediately before screening dissolved in 0.1 M NaOAc pH 4.6 buffer (test solutions). The Aspergillus, Candida, Microsporum and Rhizopus species are screened in a slightly different manner. Basically, the procedure for the Contact Germicidal Efficiency Screen is utilized. After the test solutions are made up, 5 ml aliquots are pipetted into heat sterilized 25 ml glass stoppered erlenmeyer flasks. The screen is initiated when 0.5 ml of the 5×10^6 cell (spore) per ml suspension is added to the flask containing 5 ml of the test solution. […] The subculture tubes are incubated at 25°-30° C. for ten days with daily observation for mycelial growth. The earliest subculture time at which no growth is present is considered the endpoint and is recorded as the sterilization time. To insure the viability of the culture, a 0.5 ml aliquot of the 5×10^6 cells (spores) per ml suspension is transferred to 5 ml of the pH 4.6 buffer. A loopful of the inoculated buffer is then subcultured to 7 ml of fluid Sabouraud's medium and incubated at 25°-30° C. for ten days. To insure that the dilution of the test solution into the subculture medium does stop the action, a loopful of the test solution and a loopful of the inoculated buffer are transferred into the same subculture tube. This tube is also incubated at 25°-30° C. for ten days.

[1] = system: Trychophyton mentagrophytes; experiment: Contact fungicidal screen, Trychophyton mentagrophytes; settings: 0.1M NaOAc pH 4.6
[2] = 10.0+ PPM, 0.1M NaOAc pH 4.6, screened simultaneously with four other compounds
[3] = 51.0 PPM, Triton X100 (10% solution):pH 4.6 buffer 1:1
[4] = 51.0 PPM, horse serum:pH 4.6 buffer 1:1
[5] = 300 PPM with 50% Horse Serum, 0.1M NaOAc pH 4.6
[6] = 300 PPM with 50% Triton X100, 0.1M NaOAc pH 4.6
[7] = 300 PPM, pH 4.6 buffer with 10% serum
[8] = 300 PPM, pH 4.6 buffer with 20% serum
[9] = 300 PPM, pH 4.6 buffer with 35% serum
[10] = 304.6 PPM, horse serum:pH 4.6 buffer 1:1
[11] = 304.8 PPM, Triton X100 (10% solution):pH 4.6 buffer 1:1
[12] = 606.9 PPM, pH 4.6 buffer with 33% serum
[13] = 899.25 PPM, pH 4.6 buffer with 25% serum
[14] = 1000 PPM with 50% Horse Serum, 0.1M NaOAc pH 4.6
[15] = 1001.2 PPM, horse serum:pH 4.6 buffer 1:1
[16] = 1016.0 PPM, 0.1M NaH2PO4 pH 7.0
[17] = 308.0 PPM, Triton X100 (10% solution):pH 4.6 buffer 1:1
[18] = 308.0 PPM, horse serum:pH 4.6 buffer 1:1
[19] = 1000.0 PPM, horse serum:pH 4.6 buffer 1:1
[20] = 1012.3 PPM, 0.1M NaH2PO4 pH 7.0

## CC(C)(CC(=O)O)N(Cl)Cl [(II)]
Bacillus subtilis; 1.8 PPM, 0.1M NaOAc pH 4.6
  Sterilization Time: 5.0 min
Bacillus subtilis; 4.5 PPM, 0.1M NaOAc pH 4.6
  Sterilization Time: 2.5 min
Bacillus subtilis; [2]
  Sterilization Time: 2.5 min
Bacillus subtilis; 10 PPM, 0.1M NaOAc pH 4.6
  Sterilization Time (summary): 2.5 min
Bacillus subtilis; 10.0 PPM, 0.1M NaOAc pH 4.6
  Sterilization Time: 2.5 min
Bacillus subtilis; 12.2 PPM, 0.1M NaOAc pH 4.6
  Sterilization Time: 2.5 min
Bacillus subtilis; 32.1 PPM, 0.1M NaOAc pH 4.6
  Sterilization Time: 0.5 min
Bacillus subtilis; [3]
  Sterilization Time: 0.5 min
Bacillus subtilis; [4]
  Sterilization Time: 15 min
Bacillus subtilis; 71.7 PPM, 0.1M NaOAc pH 4.6
  Sterilization Time: 0.5 min
Bacillus subtilis; 100 PPM, 0.1M NaOAc pH 4.6
  Sterilization Time (summary): 0.5 min
Bacillus subtilis; 104.7 PPM, 0.1M NaOAc pH 4.6
  Sterilization Time: 0.5 min
Bacillus subtilis; 107.8 PPM, 0.1M NaH2PO4 pH 7.0
  Sterilization Time: 5.0 min
Bacillus subtilis; 298.9 PPM, 0.1M NaOAc pH 4.6
  Sterilization Time: 0.5 min
Bacillus subtilis; [5]
  Sterilization Time (summary): 2.5 min
Bacillus subtilis; [6]
  Sterilization Time (summary): 0.5 min
Bacillus subtilis; [7]
  Sterilization Time: 0.5 min
Bacillus subtilis; [8]
  Sterilization Time: 0.5 min
Bacillus subtilis; [9]
  Sterilization Time: 2.5 min
Bacillus subtilis; [10]
  Sterilization Time: 2.5 min
Bacillus subtilis; [11]
  Sterilization Time: 0.5 min
Bacillus subtilis; 316.6 PPM, 0.1M NaH2PO4 pH 7.0
  Sterilization Time: 2.5 min
Bacillus subtilis; [12]
  Sterilization Time: 0.5 min
Bacillus subtilis; [13]
  Sterilization Time: 0.5 min
Bacillus subtilis; [14]
  Sterilization Time (summary): 0.5 min
Bacillus subtilis; 1000 PPM, 0.1M NaOAc pH 4.6
  Sterilization Time (summary): 0.5 min
Bacillus subtilis; [15]
  Sterilization Time: 0.5 min
Bacillus subtilis; 1014.8 PPM, 0.1M NaOAc pH 4.6
  Sterilization Time: 0.5 min
Bacillus subtilis; [16]
  Sterilization Time: 0.5 min
Salmonella typhimurium; 1.8 PPM, 0.1M NaOAc pH 4.6
  Sterilization Time: 5.0 min
Salmonella typhimurium; 4.5 PPM, 0.1M NaOAc pH 4.6
  Sterilization Time: 2.5 min
Salmonella typhimurium; [2]
  Sterilization Time: 0.5 min
Salmonella typhimurium; 10 PPM, 0.1M NaOAc pH 4.6
  Sterilization Time (summary): 0.5 min
Salmonella typhimurium; 10.0 PPM, 0.1M NaOAc pH 4.6
  Sterilization Time: 0.5 min
Salmonella typhimurium; 12.2 PPM, 0.1M NaOAc pH 4.6
  Sterilization Time: 0.5 min
Salmonella typhimurium; 32.1 PPM, 0.1M NaOAc pH 4.6
  Sterilization Time: 0.5 min
Salmonella typhimurium; [3]
  Sterilization Time: 0.5 min
Salmonella typhimurium; [4]
  Sterilization Time: 15 min
Salmonella typhimurium; 71.7 PPM, 0.1M NaOAc pH 4.6
  Sterilization Time: 0.5 min
Salmonella typhimurium; 100 PPM, 0.1M NaOAc pH 4.6
  Sterilization Time (summary): 0.5 min
Salmonella typhimurium; 104.7 PPM, 0.1M NaOAc pH 4.6
  Sterilization Time: 0.5 min
Salmonella typhimurium; 107.8 PPM, 0.1M NaH2PO4 pH 7.0
  Sterilization Time: 2.5 min
Salmonella typhimurium; 298.9 PPM, 0.1M NaOAc pH 4.6
  Sterilization Time: 0.5 min
Salmonella typhimurium; [5]
  Sterilization Time (summary): 2.5 min
Salmonella typhimurium; [6]
  Sterilization Time (summary): 0.5 min
Salmonella typhimurium; [7]
  Sterilization Time: 0.5 min
Salmonella typhimurium; [8]
  Sterilization Time: 0.5 min
Salmonella typhimurium; [9]
  Sterilization Time: 2.5 min
Salmonella typhimurium; [10]
  Sterilization Time: 2.5 min
Salmonella typhimurium; [11]
  Sterilization Time: 0.5 min
Salmonella typhimurium; 316.6 PPM, 0.1M NaH2PO4 pH 7.0
  Sterilization Time: 2.5 min
Salmonella typhimurium; [12]
  Sterilization Time: 0.5 min
Salmonella typhimurium; [13]
  Sterilization Time: 0.5 min
Salmonella typhimurium; [14]
  Sterilization Time (summary): 0.5 min
Salmonella typhimurium; 1000 PPM, 0.1M NaOAc pH 4.6
  Sterilization Time (summary): 0.5 min
Salmonella typhimurium; [15]
  Sterilization Time: 0.5 min
Salmonella typhimurium; 1014.8 PPM, 0.1M NaOAc pH 4.6
  Sterilization Time: 0.5 min
Salmonella typhimurium; [16]
  Sterilization Time: 0.5 min
Aspergillus fumigatus; 10 PPM
  Sterilization Time: 15 min
Aspergillus fumigatus; 100 PPM
  Sterilization Time: 15 min
Aspergillus fumigatus; 1000 PPM
  Sterilization Time: 15 min
[1]; 10 PPM
  Sterilization Time: 5.0 min
[1]; 100 PPM
  Sterilization Time: 0.5 min
[1]; 1000 PPM
  Sterilization Time: 0.5 min

## CC(C)(CCC(=O)O)N(Cl)Cl [(III), 4-Dichloroamino-4-methylvaleric acid]
Bacillus subtilis; 9.6 PPM, 0.1M NaOAc pH 4.6
  Sterilization Time: 2.5 min
Bacillus subtilis; 9.7 PPM, 0.1M NaH2PO4 pH 7.0
  Sterilization Time: 15 min
Bacillus subtilis; [2]
  Sterilization Time: 2.5 min
Bacillus subtilis; 10 PPM, 0.1M NaOAc pH 4.6
  Sterilization Time (summary): 2.5 min
Bacillus subtilis; 100 PPM, 0.1M NaOAc pH 4.6
  Sterilization Time (summary): 0.5 min
Bacillus subtilis; 102.2 PPM, 0.1M NaOAc pH 4.6
  Sterilization Time: 0.5 min
Bacillus subtilis; 103.5 PPM, 0.1M NaH2PO4 pH 7.0
  Sterilization Time: 10.0 min
Bacillus subtilis; [5]
  Sterilization Time (summary): 2.5 min
Bacillus subtilis; [6]
  Sterilization Time (summary): 0.5 min
Bacillus subtilis; [17]
  Sterilization Time: 0.5 min
Bacillus subtilis; [18]
  Sterilization Time: 2.5 min
Bacillus subtilis; [14]
  Sterilization Time (summary): 0.5 min
Bacillus subtilis; 1000 PPM, 0.1M NaOAc pH 4.6
  Sterilization Time (summary): 0.5 min
Bacillus subtilis; [19]
  Sterilization Time: 0.5 min
Bacillus subtilis; 1007.7 PPM, 0.1M NaOAc pH 4.6
  Sterilization Time: 0.5 min
Bacillus subtilis; [20]
  Sterilization Time: 2.5 min
Salmonella typhimurium; 9.6 PPM, 0.1M NaOAc pH 4.6
  Sterilization Time: 2.5 min
Salmonella typhimurium; 9.7 PPM, 0.1M NaH2PO4 pH 7.0
  Sterilization Time: 15 min
Salmonella typhimurium; [2]
  Sterilization Time: 2.5 min
Salmonella typhimurium; 10 PPM, 0.1M NaOAc pH 4.6
  Sterilization Time (summary): 2.5 min
Salmonella typhimurium; 100 PPM, 0.1M NaOAc pH 4.6
  Sterilization Time (summary): 0.5 min
Salmonella typhimurium; 102.2 PPM, 0.1M NaOAc pH 4.6
  Sterilization Time: 0.5 min
Salmonella typhimurium; 103.5 PPM, 0.1M NaH2PO4 pH 7.0
  Sterilization Time: 5.0 min
Salmonella typhimurium; [5]
  Sterilization Time (summary): 2.5 min
Salmonella typhimurium; [6]
  Sterilization Time (summary): 0.5 min
Salmonella typhimurium; [17]
  Sterilization Time: 0.5 min
Salmonella typhimurium; [18]
  Sterilization Time: 2.5 min
Salmonella typhimurium; [14]
  Sterilization Time (summary): 0.5 min
Salmonella typhimurium; 1000 PPM, 0.1M NaOAc pH 4.6
  Sterilization Time (summary): 0.5 min
Salmonella typhimurium; [19]
  Sterilization Time: 0.5 min
Salmonella typhimurium; 1007.7 PPM, 0.1M NaOAc pH 4.6
  Sterilization Time: 0.5 min
Salmonella typhimurium; [20]
  Sterilization Time: 0.5 min
Aspergillus fumigatus; 10 PPM
  Sterilization Time: 15 min
Aspergillus fumigatus; 100 PPM
  Sterilization Time: 15 min
Aspergillus fumigatus; 1000 PPM
  Sterilization Time: 10.0 min
[1]; 10 PPM
  Sterilization Time: 5.0 min
[1]; 100 PPM
  Sterilization Time: 0.5 min
[1]; 1000 PPM
  Sterilization Time: 0.5 min
